# Measurements taken from patent US20070254827A1, “Alpha-aminobenzyl-alpha,alpha,-diphosphoric acid selective chelation of beryllium” (priority 2006, published 2007).
# Key:
# [1] = in vivo; cited from earlier work
# [2] = Site-300 beryllium oxide debris particle chelation (ICP-MS of filtrates); assay type: physicochemical; conditions: pH 7, equilibrated 3 days
# Protocol: The aims of this investigation were not limited to the study of beryllium in biological fluids and systems. A good chelator in the body is likely a good chelator in the environment. […] Particles were obtained from the Contained Firing Facility (CFF) at LLNL Site 300. Approximately 500 mg of beryllium oxide debris was weighed in a tared polyethylene vials and varying concentrations of APMDP chelator (pH adjusted to pH 7) were added to each vial. The vials were left to stand for 3 days, with manual shaking performed for 2 minutes each, twice a day. Samples were then filtered through a 0.2 um membrane and filtrates were analyzed by ICP-MS.
# [3] = Initial mouse tolerability experiment with beryllium and chelator; assay type: in vivo, mice; conditions: beryllium and chelator administration, 48-hour experiment
# Protocol: LLNL-IBC#2004-029. Two sets of animal experiments were performed.
# [4] = cited from earlier work
SMILES,LD-50 [1] [mg/kg],adverse effect on mice [3],further results
CC(N)c1ccccc1 (centres unmarked) [a-methylbenzylamine],940,,
"CC(c1ccccc1)N(C)C (centres unmarked) [N,N-dimethyl-a-methylbenzylamine]",420,,
NCc1ccccc1 [Benzylamine],128,,
"NC(c1ccccc1)(P(=O)(O)O)P(=O)(O)O [APMDP, α-aminobenzyl-α,α,-diphosphoric acid]",,did not adversely affect the mice,dissolution of insoluble BeO fines [2]: can be dissolved
O=S(=O)(O)c1cc(O)c(O)c(S(=O)(=O)O)c1 [tiron],,did not adversely affect the mice,
O=P(O)(O)c1ccccc1 [phenylphosphonic acid],,,toxic at [1]: 110 mg/kg; water solubility [4]: water soluble
